Some test systems named below: HCC 2998; A498; HCT-116; COLO 205; NCI-H522; EKVX; SW-620; UACC-257; MDA-MB-231; SK-OV-3; K562; LOX IMVI; IGROV-1; HOP-92; HT-29; PC-3; OVCAR-4; BT-549; RPMI-8226; M19-MEL.
Holding throughout (assay): DTP human tumour cell line panel, 48 h

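Values below derive from 48-hour exposures of cells grown in 96-well plates, with endpoints linearly interpolated between the two concentrations bracketing the appropriate inhibition level. GI50 = concentration required for 50% inhibition of growth.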 Calls of active or inactive are those of the source. No stated cut-off is given here; in the data, active = GI50 up to about 1.1 µM and inactive = higher.

As to `CC(C)O/N=C/c1cc(NC(=S)OC(C)C)ccc1Cl`, the GI50 (as a rule, the concentration at which growth is held to half of that of the control) with HCC 2998 is 45.2 µM (inactive); in the experiment with A498, 44.7 µM (inactive); in the experiment with HCT-116 it was 23.3 µM (inactive); in the experiment with COLO 205, 56.8 µM (inactive); with NCI-H522, 26 µM (inactive); in the experiment with EKVX, 19.1 µM (inactive). Further, the GI50 with SW-620 was 45.2 µM (inactive); in the experiment on UACC-257, > 100 µM (inactive); in the experiment on MDA-MB-231, 19.1 µM (inactive); in the experiment with SK-OV-3, 38.8 µM (inactive); in the experiment with K562, 29.4 µM (inactive); in the experiment with LOX IMVI it was 28.1 µM (inactive). In addition, the GI50 in the experiment on IGROV-1 is 28.2 µM (inactive); with HOP-92 it was > 44.2 µM (inactive); in the experiment with HT-29, 23.1 µM (inactive); in the experiment on PC-3, 36.8 µM (inactive); in the experiment with OVCAR-4, 31.7 µM (inactive); in the experiment with BT-549, 55.5 µM (inactive). Besides, the GI50 with RPMI-8226 was 13.8 µM (inactive).

On to `C=CC(C)(O)CCC1C(=C)C(O)CC2C(C)(C)CCCC12C` (centres undefined), for which the GI50 in the experiment on HCC 2998 was 18.6 µM (inactive); in the experiment with A498, 18.3 µM (inactive); in the experiment with HCT-116, 17.9 µM (inactive); with COLO 205 it was 16 µM (inactive); in the experiment on NCI-H522, 17.6 µM (inactive); in the experiment with EKVX, 19.1 µM (inactive). For the same compound, the GI50 with SW-620 was 20.7 µM (inactive); with UACC-257 it was 19 µM (inactive); in the experiment on MDA-MB-231, 17.7 µM (inactive); in the experiment on SK-OV-3, 33.3 µM (inactive); with K562, 14.4 µM (inactive); in the experiment on LOX IMVI, 19.2 µM (inactive). Further, the GI50 with IGROV-1 was 24.3 µM (inactive); in the experiment on HOP-92, 17.3 µM (inactive); in the experiment with HT-29, 17.8 µM (inactive); in the experiment on PC-3, 15.3 µM (inactive); in the experiment with OVCAR-4, 20.5 µM (inactive); in the experiment on BT-549 it was 18 µM (inactive). Besides, the GI50 in the experiment with RPMI-8226 was 20 µM (inactive).

For the compound `CCOC(=O)C(SCCO)C(C(=O)OCC)n1cc(C)c(=O)[nH]c1=O` (centres undefined), the GI50 with HCC 2998 was 27.4 µM (inactive); in the experiment with A498, 20.4 µM (inactive); in the experiment on HCT-116 it was 7.41 µM (inactive); in the experiment on COLO 205, 10 µM (inactive); with NCI-H522, 3.3 µM (inactive); in the experiment with EKVX it was 30.7 µM (inactive). Moreover, the GI50 with SW-620 was 5.96 µM (inactive); with UACC-257, 28.2 µM (inactive); in the experiment on MDA-MB-231, 15.9 µM (inactive); in the experiment on SK-OV-3, > 79.3 µM (inactive); in the experiment with K562, 3.48 µM (inactive); in the experiment with LOX IMVI, 6.84 µM (inactive). Besides, the GI50 was 25.4 µM (inactive) with IGROV-1; 15.6 µM (inactive) with HOP-92; 12.9 µM (inactive) in the experiment with HT-29; 13.9 µM (inactive) with PC-3; 23 µM (inactive) in the experiment on OVCAR-4; 23.6 µM (inactive) in the experiment on BT-549. In addition, the GI50 in the experiment with RPMI-8226 is 7.89 µM (inactive).

Take `Cc1ccc(NC(c2ccccc2)P(=O)(c2ccccc2)c2ccccc2)cc1` (centres undefined): the GI50 in the experiment on HCC 2998, in the experiment with A498, with HCT-116, in the experiment with COLO 205, with NCI-H522 and in the experiment on EKVX was > 100 µM (inactive) each time. Moreover, the GI50 in the experiment on SW-620 was > 100 µM (inactive); in the experiment on UACC-257, > 100 µM (inactive); with MDA-MB-231, > 100 µM (inactive); in the experiment with SK-OV-3, > 100 µM (inactive); in the experiment with K562, 34.4 µM (inactive); with LOX IMVI, > 100 µM (inactive). Besides, the GI50 in the experiment with IGROV-1 is > 100 µM (inactive); in the experiment on HOP-92, 27.2 µM (inactive); with HT-29, > 100 µM (inactive); in the experiment with PC-3, > 100 µM (inactive); in the experiment on OVCAR-4, > 100 µM (inactive); with BT-549, > 100 µM (inactive). For the same compound, the GI50 with RPMI-8226 was > 100 µM (inactive).

For the compound `CNC(=S)NN=C1NCCCN1`, the GI50 with HCC 2998, with A498, with HCT-116, in the experiment on COLO 205, in the experiment on NCI-H522 and in the experiment on EKVX was > 100 µM (inactive) each time. Besides, the GI50 in the experiment with SW-620, in the experiment with UACC-257, in the experiment on MDA-MB-231, with SK-OV-3, with K562 and in the experiment with LOX IMVI was > 100 µM (inactive) throughout. Moreover, the GI50 in the experiment on IGROV-1, with HOP-92, in the experiment on HT-29, in the experiment on PC-3, in the experiment with OVCAR-4 and with BT-549 was > 100 µM (inactive) in each case. Moreover, in the experiment on RPMI-8226, the GI50 is > 100 µM (inactive).

On to `COc1cccc(NC(=O)c2c(N)n[nH]c2SC)c1`, for which the GI50 with HCC 2998, in the experiment with A498, in the experiment with HCT-116, with COLO 205, in the experiment with NCI-H522 and with EKVX was > 100 µM (inactive) throughout. Also, the GI50 with SW-620, with UACC-257, in the experiment with MDA-MB-231, in the experiment on SK-OV-3, in the experiment on K562 and in the experiment on LOX IMVI was > 100 µM (inactive) throughout. Further, the GI50 in the experiment on IGROV-1, in the experiment on HOP-92, in the experiment on HT-29, in the experiment with PC-3, in the experiment on OVCAR-4 and in the experiment on BT-549 was > 100 µM (inactive) throughout. For the same compound, the GI50 in the experiment on RPMI-8226 was 84.9 µM (inactive).

For `CCOC(=O)C(=Cc1ccccc1Cl)C(=O)OCC`, the GI50 in the experiment with HCC 2998 is > 10 µM (inactive); in the experiment on A498, 2.92 µM (inactive); in the experiment on HCT-116, 0.558 µM (active); in the experiment on COLO 205 it was 1.57 µM (inactive); with NCI-H522, 2.03 µM (inactive); in the experiment on EKVX, 3.03 µM (inactive). Moreover, the GI50 with SW-620 was 1.32 µM (inactive); in the experiment with UACC-257, 1.82 µM (inactive); in the experiment on MDA-MB-231, 1.83 µM (inactive); in the experiment with SK-OV-3 it was 5.26 µM (inactive); in the experiment with K562, 1.15 µM (inactive); in the experiment on LOX IMVI it was 1.75 µM (inactive). The GI50 was 3.49 µM (inactive) with IGROV-1; 2.88 µM (inactive) with HOP-92; 1.43 µM (inactive) in the experiment with HT-29; 1.79 µM (inactive) with PC-3; 2.27 µM (inactive) with OVCAR-4; 1.62 µM (inactive) with BT-549. In addition, the GI50 in the experiment with RPMI-8226 is 1.56 µM (inactive).

As to `CN1CCc2c3n(c4cc(Br)ccc24)[C@H](O)CCCC31` (some centres undefined), the GI50 is 1.75 µM (inactive) in the experiment on HCC 2998; 4.11 µM (inactive) in the experiment on A498; 1.69 µM (inactive) in the experiment with HCT-116; 1.78 µM (inactive) in the experiment on COLO 205; 1.49 µM (inactive) with NCI-H522; > 10 µM (inactive) with EKVX. Also, the GI50 in the experiment on SW-620 was 1.96 µM (inactive); with UACC-257 it was 2.25 µM (inactive); in the experiment with MDA-MB-231 it was 2.13 µM (inactive); in the experiment with SK-OV-3, > 10 µM (inactive); in the experiment on K562, 1.37 µM (inactive); in the experiment on LOX IMVI it was 1.74 µM (inactive). For the same compound, the GI50 in the experiment with IGROV-1 was > 7.11 µM (inactive); with HOP-92, 3.61 µM (inactive); in the experiment on HT-29, 1.81 µM (inactive); in the experiment on PC-3, 5.89 µM (inactive); in the experiment with OVCAR-4, 2.67 µM (inactive); in the experiment with BT-549, > 10 µM (inactive). Also, the GI50 in the experiment on RPMI-8226 was 2.4 µM (inactive).

As for `Oc1ccccc1-c1cnnc(-c2ccccc2O)c1`, the GI50 is 20.1 µM (inactive) with HCT-116; 22 µM (inactive) in the experiment on COLO 205; 17.7 µM (inactive) in the experiment on NCI-H522; 24.1 µM (inactive) in the experiment with EKVX; 37.7 µM (inactive) in the experiment on SW-620; 25.1 µM (inactive) in the experiment with UACC-257. Further, the GI50 in the experiment on SK-OV-3 is 43.5 µM (inactive); in the experiment on K562 it was 7.73 µM (inactive); in the experiment with LOX IMVI, 20.3 µM (inactive); with HOP-92, 24 µM (inactive); in the experiment with HT-29, 26.5 µM (inactive); with OVCAR-4, 29.9 µM (inactive). Also, the results for the GI50 in the experiment on M19-MEL and with RPMI-8226 were 27.4 µM (inactive) and 16.7 µM (inactive), respectively.

As to `CN(C)CCNC1=CC(=O)c2c(O)ccc(O)c2C1=O`, the GI50 was 3.88 µM (inactive) with HCC 2998; 14.8 µM (inactive) in the experiment with A498; 2.8 µM (inactive) in the experiment on HCT-116; 1.9 µM (inactive) in the experiment with COLO 205; 3.73 µM (inactive) in the experiment on NCI-H522; 12.8 µM (inactive) with EKVX. Also, the GI50 in the experiment on SW-620 was 3.3 µM (inactive); with UACC-257, 2.36 µM (inactive); in the experiment with MDA-MB-231 it was 11.7 µM (inactive); in the experiment on SK-OV-3 it was 28.6 µM (inactive); in the experiment with K562, 2.52 µM (inactive); in the experiment with LOX IMVI it was 3.39 µM (inactive). Further, the GI50 was 6.17 µM (inactive) with IGROV-1; 14.2 µM (inactive) in the experiment with HOP-92; 2.59 µM (inactive) with HT-29; 5.77 µM (inactive) with PC-3; 4.54 µM (inactive) in the experiment with OVCAR-4; 14.6 µM (inactive) in the experiment on BT-549. Also, the GI50 in the experiment with RPMI-8226 was 7.52 µM (inactive).

On to `NCS(=O)(=O)O`, for which the GI50 in the experiment with HCC 2998, in the experiment on A498, in the experiment on HCT-116, in the experiment on COLO 205, in the experiment on NCI-H522 and with EKVX was > 100 µM (inactive) throughout. Besides, the GI50 in the experiment with SW-620, with UACC-257, in the experiment with MDA-MB-231, with SK-OV-3, in the experiment on K562 and with LOX IMVI was > 100 µM (inactive) each time. In addition, the GI50 with IGROV-1 is > 100 µM (inactive); in the experiment with HOP-92, > 100 µM (inactive); in the experiment with HT-29 it was > 100 µM (inactive); in the experiment on PC-3, > 100 µM (inactive); in the experiment with OVCAR-4, 83.4 µM (inactive); in the experiment with BT-549, > 100 µM (inactive). Also, the GI50 in the experiment with RPMI-8226 was > 100 µM (inactive).

The values above are taken from ChEMBL document CHEMBL1201862, “PubChem BioAssay data set” (2004).
